Measured values reported in patent publication US4880779A, “Method of prevention or treatment of AIDS by inhibition of human immunodeficiency virus” (priority 1987, dated 1989).
Where a SMILES comes first, the peptide text is derived from it.

Experiments:
[1] = test system: human immunodeficiency virus (HIV); test: HIV-induced cell fusion: RH9 cells mixed with HIV-infected lymphoblasts; assay type: cell-based; conditions: for Polykaryocytes Mean Diameter / Polykaryocytes Per mm^2: RH9 + HIV-RH9; for activity as inhibitor of HIV-induced cell fusion: RH9 + HIV-infected cells
Experimental: (§1) The commercially available peptides, carbobenzoxy-D- Phe-L-Phe-Gly (z-PPG) and Phe-Gly-Gly-Phe (PGGP) were obtained from Sigma Chemical Company, St. Louis, MO in granular form. Stock solutions were prepared to 20 mg/ml in dimethyl sulfoxide and stored at 0° C. A line of uninfected human lymphoblasts, RH9, and a line of lymphoblasts persistently infected with human immunodeficiency virus (HIV) were obtained from Dr. Robert Garry of Tulane Medical Center, New Orleans, La. and grown in RPMI medium containing 10% fetal calf serum obtained from Gibco, Grand Island, N.Y.
In the experimental protocol, RH9 cells are pretreated with various concentrations of either z-PPG or PGGP by adding a small aliquot of the peptide/DMSO solution to a suspension culture. After 1 hour, a suspension culture containing one-half the number of HIV-infected cells are added to the RH9-peptide mixture. The mixture is then incubated at 37° C. for 18 hours, and examined periodically for induction of cell fusion in the cell mixture.

uninfected RH9 cells = test system: uninfected RH9 cells
Experimental: as §1
To test this further incubated cultures of either uninfected RH9 cells, or HIV-infected carrier cultures, were incubated with PGGP for four days.

Molecule: carbobenzoxy-D- Phe-L-Phe-Gly [z-PPG]
- Polykaryocytes Mean Diameter ([1]; 0.08 M peptide): 51 um
- Polykaryocytes Per mm^2 ([1]; 0.08 M peptide): 105 per mm^2
- Polykaryocytes Mean Diameter ([1]; 0.25 M peptide): 37 um
- Polykaryocytes Per mm^2 ([1]; 0.25 M peptide): 59 per mm^2
- Polykaryocytes Mean Diameter ([1]; 0.8 M peptide): 26 um
- Polykaryocytes Per mm^2 ([1]; 0.8 M peptide): 4 per mm^2
- inhibition of fusion (phase photomicrographs, FIG. 1) ([1]; approximtely 1 mM peptide, 1 hour pretreatment of RH9, 18 hours at 37° C.): almost complete inhibition of fusion
- minimal inhibitory dose ([1]; inhibition of cell fusion under these experimental conditions, 18 hours): 0.3 mM

Molecule: N[C@@H](Cc1ccccc1)C(=O)NCC(=O)NCC(=O)N[C@@H](Cc1ccccc1)C(=O)O [PGGP, Phe-Gly-Gly-Phe] (H-FGGF-OH)
- effect on rate of growth, final cell density or cell viability (uninfected RH9 cells): no significant effect

Molecule: z-Phe-Leu [x-Phe-Leu, reference compound]
- activity as inhibitor of HIV-induced cell fusion [1]: no demonstrable activity
- activity as inhibitor of HIV-induced cell fusion ([1]; listed as z-Phe-Leu): ineffective

Molecule: z-Phe-Gly [reference compound]
- activity as inhibitor of HIV-induced cell fusion [1]: no demonstrable activity
